Test results from patent US7894880B2, “Measurement of renal extraction fraction using contrast enhanced computed tomography” (The Board of Trustees of the Leland Stanford Junior …, priority 2003, dated 2011).
Values joined by “and” are separate entries in the source; they are usually repeats but may differ in a detail not shown here. Identical values can stand only once.

Experiment: Renal extraction fraction by contrast enhanced CT after iohexol injection (retrospective study)
Type: in vivo, adult patients
From the text: [formula] where CA is the concentration of a filtration marker in the systemic arterial blood entering the kidney, and CV is the corresponding concentration in the renal venous blood. Standard radiographic contrast agents, including iothalamate and iohexol, may be used as filtration markers since they are freely filtered by the kidney, and neither secreted nor reabsorbed. Assuming linear increase in CT number with concentration of contrast agent, CA will be proportional to the increase in CT number of the systemic arterial blood following contrast injection, or CTA-CTPRE, where CTPRE and CTA are the pre- and post- contrast CT numbers of the systemic arterial blood. Similarly, CTV will be proportional to CTV-CTPRE, where CTV is the post-contrast CT number of a renal vein. Substituting into equation [1] yields: […]
In a retrospective study, CT scans of 10 adult patients (mean age 58.1 years, 7 female) having no known renal disease, and one patient with unilateral renal obstruction were studied. All patients had precontrast scans followed by injection of 120 ml. of iohexol (Omnipaque 350, Amersham Health, Princeton, N.J.) at 2 ml/sec., and enhanced scans through the kidney vasculature, delayed for 3 to 5 minutes after the end of the contrast injection. CT section thickness varied from 2.5 mm to 5 mm. Pre- and post-contrast delayed images were evaluated using ROI measurements taken within the abdominal aorta in the region of the renal vessels, and within right and left renal veins. Multiple measurements, one from each of several axial scans, within each vessel were obtained, varying from 2 to 4 measurements for each renal vein, and 4-8 measurements for the abdominal aorta. Mean CT number values were subsequently computed for each vessel. EF values for the right and left kidneys in each subject were then computed for each patient using equation [2] above. Propagation of error was used to estimate the standard deviation in the computed EF values, as expressed in:
[formula] where σ^2CTA, σ^2CTV, and σ^2CTPRE are the variances in the mean values for each region.

[1] = 10 patients with no history of renal disease, weighted by the inverse of the variance
[2] = individual normal subjects (no known renal disease), one line per patient, 120 ml iohexol at 2 ml/sec, scans delayed 3 to 5 minutes after injection
[3] = patient with unilateral renal obstruction

Left renal EF, weighted mean ± SD [1]: 12.3±1.3%
Right renal EF, weighted mean ± SD [1]: 12.6±1.0%
EF in the obstructed left kidney [3]: 9.7±4.0%
EF in the unobstructed right kidney [3]: 29.6±5.6%
Compound: CC(=O)N(CC(O)CO)c1c(I)c(C(=O)NCC(O)CO)c(I)c(C(=O)NCC(O)CO)c1I (stereo not drawn) [iohexol]
Left Renal EF (calculated extraction fraction ± s.d.) [2]: 7.7 ± 6.3% and 9.1 ± 1.5% and 7.8 ± 2.6% and 21.1 ± 1.7% and 22.2 ± 3.0% and 8.3 ± 1.9% and 17.7 ± 4.7% and 8 ± 3.2% and 7.7 ± 3.1% and 7.7 ± 5.3%
Right Renal EF (calculated extraction fraction ± s.d.) [2]: 8.3 ± 9.6% and 16.2 ± 11.6% and 7.6 ± 1.6% and 16.8 ± 3.4% and 16.7 ± 2.2% and 8 ± 5.4% and 16.2 ± 4.6% and 10.6 ± 4.5% and 18.8 ± 2.8% and 13.3 ± 3.1%
